# Columns and labels:
# [1] = cited from earlier work
# [2] = Dissolution studies of arsenic salts in 100 mL water with stirring at room temperature (pH 7 and pH 1-2); assay type: physicochemical; conditions: for Dissolution Time at pH 1-2 / Final pH after dissolution / Dissolution Time at pH 7: 100 mL, stirring, room temperature
# [3] = Dissolution of 1 mg arsenic trioxide capsule in 0.1M HCl and purified water with 0.5% BKC; assay type: physicochemical; conditions: 1 mg capsule RX500950.01, 500 ml medium, 37° C., paddle 50 rpm
# Method: To manufacture the components for insertion into the capsule all ingredients were sieved through a 500 μm sieve into a sealable jar and blended for 20 minutes in a tumble blender. The blended powder was filled into the Size 4 white hard gelatin capsules at a fill weight of 140 mg.
# For the dissolution experiments the medium was 0.1M HCl and purified water with a volume of 500 ml also containing 0.5% benzalkonium chloride (BKC) at 37° C. The paddle stir speed was 50 rpm. The capsule shell disrupted within three minutes and all contents were expelled in less than five minutes. Only 5% arsenic trioxide was dissolved after 20 minutes. Even after 19 hours only 60% was dissolved. The presence of the citric acid reduced the pH of the medium from ˜8.0 to ˜7.3. Given the anticipated increase in solubility at a higher pH, these experiments were repeated at a higher pH as indicated in the tables below wherein the mean and range values represented percentage dissolution of the arsenic trioxide.
# [4] = Trial 1: test dissolution of arsenic trioxide solely in sodium bicarbonate solution; assay type: physicochemical; conditions: 50 mg in 2540 mg sodium bicarbonate / approximately 27.2 mls water, with heating
# Method: 2540 mg of Sodium Bicarbonate was dissolved in approximately 27.2 mls water (dissolved in less than 5 minutes). 50 mg Arsenic Trioxide was then added to this bicarbonate solution.
# [5] = Dissolution of arsenic trioxide in 0.1M NaOH (pH 13); assay type: physicochemical
# Method: A further dissolution experiment was conducted in a solution of 0.1M NaOH (pH 13) and, as expected, more arsenic trioxide could be dissolved with a 100% level reached between 15-20 minutes as indicated in the table below.
# [6] = all three mediums: simulated gastric fluid pH 1.24, pH 4.5, pH 7.0; 150 mls, 37° C., spin bar
# Method: 100 mg of arsenic trioxide was dissolved in 10 mL of 0.5M NaOH with heat (<ten minutes). 250 mg Sodium Carbonate was then added (dissolves almost straight away) and excess water evaporated.
# Dissolution experiments were then carried out on the AC01 at 3 different pH levels. […] Prior to addition of the capsules 150 mls of the dissolution solution was heated to 37° C. and the solution contained a spin bar at a speed of 2. The appropriate capsule was then added.
# [7] = not dissolved within the time given
molecule,measurement,setting,value
O=C([O-])O.[Na+] [Sodium Bicarbonate],pH 0.1M solution,[1],8.3
"O=[As][O-].[Na+] [Sodium meta arsenite, sodium meta arsenite]",Dissolution Time at pH 1-2,[2],55 seconds - Final pH after
same,Final pH after dissolution,[2]; dissolution at pH 1-2,dissolution = 1.27
same,Final pH after dissolution,[2]; dissolution at pH 7,pH after dissolution = 10.2
same,Time to dissolve at pH 1-2,[2]; pH 1-2,less than one
same,Time to dissolve at pH 7,[2]; pH 7,less than 2 minutes
Arsenic trioxide,arsenic trioxide dissolved,[3]; after 20 minutes,5%
same,arsenic trioxide dissolved,[3]; after 19 hours,60%
same,Dissolution in sodium bicarbonate solution,[4],would not dissolve even with heating
same,Dissolution Time at pH 1-2,[2]; [7],Not dissolved in 3 hours
same,Dissolution Time at pH 7,[2]; [7],Not dissolved in 3 hours
same,Time at which 100% dissolution level is reached,[5],15 to 20 min
same,% Recovered (weight Corrected) Mean,[5]; 5 minutes,12%
same,% Recovered (weight Corrected) Mean,[5]; 10 minutes,65%
same,% Recovered (weight Corrected) Mean,[5]; 15 minutes,96%
same,% Recovered (weight Corrected) Mean,[5]; 20 minutes,109%
same,% Recovered (weight Corrected) Mean,[5]; 25 minutes,116%
same,% Recovered (weight Corrected) Mean,[5]; 30 minutes,114%
Sodium arsenic carbonate [AC01],Time to dissolution of powder from capsule,[6],less than two
same,Dissolution Time at pH 1-2,[2],<5-10 seconds - Final pH
same,Dissolution Time at pH 7,[2],40 seconds - Final pH after
same,Final pH after dissolution,[2]; dissolution at pH 1-2,after dissolution = 1.13
same,Final pH after dissolution,[2]; dissolution at pH 7,dissolution = pH 8.95
